The source made the active and inactive calls.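 How the source made its calls: active means half-maximal concentration for changing protein binding to DNA, from the fitted dose curve, below 10 micromolar; inactive means the rest.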
These compounds were tested against Nuclear receptor subfamily 1 group D member 1 (Homo sapiens) (UniProt P20393) (assay: modulators of Rev-erb alpha DNA binding, dose response, biochemical, FITC-DNA, fluorescence polarization (AID 1259321)).
Sequence of Nuclear receptor subfamily 1 group D member 1 (Homo sapiens) (P20393 whole entry, looked up): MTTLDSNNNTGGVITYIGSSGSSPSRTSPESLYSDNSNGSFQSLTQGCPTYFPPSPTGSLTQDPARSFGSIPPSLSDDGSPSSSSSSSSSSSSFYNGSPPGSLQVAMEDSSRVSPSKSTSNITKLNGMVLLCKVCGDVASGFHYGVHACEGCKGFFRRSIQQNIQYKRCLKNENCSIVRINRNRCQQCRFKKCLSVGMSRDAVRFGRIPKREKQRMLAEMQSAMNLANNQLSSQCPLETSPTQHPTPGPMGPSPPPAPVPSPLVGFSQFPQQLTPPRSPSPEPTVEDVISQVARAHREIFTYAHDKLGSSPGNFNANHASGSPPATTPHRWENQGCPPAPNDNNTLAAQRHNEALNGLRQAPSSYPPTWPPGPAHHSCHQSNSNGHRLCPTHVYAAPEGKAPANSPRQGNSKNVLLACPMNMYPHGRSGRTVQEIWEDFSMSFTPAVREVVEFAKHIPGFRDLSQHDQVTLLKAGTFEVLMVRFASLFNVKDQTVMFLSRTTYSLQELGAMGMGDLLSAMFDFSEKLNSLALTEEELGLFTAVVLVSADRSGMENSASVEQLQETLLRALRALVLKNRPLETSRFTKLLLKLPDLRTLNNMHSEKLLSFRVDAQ

Row | SMILES | IC50
1 | CCCCn1c(SC(C)C(=O)NCC2CCCO2)nc2cc(C(=O)OC)ccc2c1=O (stereo not given) | > 40 µM (inactive)
2 | COc1ccc(CCn2c(-c3ccc(OC)cc3)nc3c(c(=O)c4ccccc4n3C)c2=O)cc1 | 7.79 µM
3 | O=C(Cc1sc(-c2ccccc2)nc1-c1ccccc1)Nc1ccc(Cl)cc1 | 3.2 µM
4 | O=C(/C=C/c1cccc2ccccc12)NCCC1=CCCCC1 | > 40 µM (inactive)
5 | O=C(Nc1nc(-c2ccccc2)c(C(=O)c2ccccc2)s1)c1ccc(S(=O)(=O)N2CCCCC2)cc1 | 0.541 µM
6 | Cc1cc(=O)oc2cc(OCC(=O)Nc3ccc(S(=O)(=O)N(C)C)cc3)ccc12 | > 40 µM (inactive)
7 | O=C1c2c(Br)c(Br)c(Br)c(Br)c2C(=O)N1c1ccccn1 | 8.24 µM
8 | CCc1nc2ccccc2c(C(=O)OCc2nc3ccccc3c(=O)[nH]2)c1C | > 40 µM (inactive)
9 | O=C(NCc1ccccc1)C(c1cccc2ccccc12)n1c(=O)c(-c2ccccc2)nc2ccccc21 (stereo not given) | 1.61 µM
10 | Cn1c(N)c(C(=O)CSc2nn(-c3ccc(F)cc3)c(=S)s2)c(=O)n(C)c1=O | > 40 µM (inactive)
11 | Cc1cc(C)cc(N2CC(O)=C(c3nc4ccccc4c(=O)[nH]3)C2=N)c1 | 2.99 µM
12 | COc1cc(C(=O)Nc2nc(-c3cc(C)ccc3C)c(C)s2)ccc1OCC(=O)Nc1ccc(F)cc1 | inactive
13 | C=CCn1c(C)c(/C=C/c2cc[n+](C)cc2)c2ccccc21 | 9.96 µM
14 | CCOC(=O)c1nn(-c2ccc(F)cc2)c(=O)cc1OCC(=O)Nc1cccc(C)c1 | 9.68 µM
15 | COc1ccc2nc(SCC(=O)NC3CCCC3)c(C)cc2c1 | 4.48 µM
16 | CCOc1ccc2nc(SCC(=O)N3c4ccccc4Sc4ccccc43)c(C#N)cc2c1 | 6.88 µM
17 | COc1cccc(C(=O)n2ccc3ccc(-c4ccc5ccn(Cc6ccccc6)c5c4)cc32)c1 | 1.31 µM
18 | Fc1cccc(CSc2ncnc3c2oc2ccccc23)c1 | 2.38 µM
19 | CC(=O)Nc1sc(C)c(C)c1C(=O)OCC(=O)N(Cc1ccccc1)C(C)C | inactive
20 | CCCCCCNC(=O)C(C#N)c1nc2ccccc2nc1N1CCOCC1 (stereo not given) | > 40 µM (inactive)

Row | SMILES | IC50
21 | CC(C)Cc1nc2sc3c(SCC(N)=O)ncnc3c2c2c1CCC2 | 3.65 µM
22 | Cc1ccc2c(n1)sc1c(-c3ccccc3)c(C#N)c(N)nc12 | inactive
23 | Cn1c(SCC(=O)NCc2ccc3c(c2)OCO3)ncc(C(=O)Nc2ccc(F)cc2)c1=O | 3.91 µM
24 | O=C(Nc1ccc2oc(-c3cccc(F)c3)nc2c1)c1ccccc1F | 2.87 µM
25 | COc1ccc(Cl)cc1C(=O)Nc1cccc(-c2ccc3nncn3n2)c1 | 7.26 µM
26 | Cc1ccc(-c2c(C#N)c(N)n(-c3ccc(Cl)cc3)c(=O)c2C#N)cc1 | inactive
27 | O=C(COc1ccccc1)Nc1nc2cc3c(cc2s1)OCCO3 | 4.3 µM
28 | COc1ccc2cc(C(=O)Nc3ccc(S(N)(=O)=O)cc3)sc(=O)c2c1OC | 3.03 µM
29 | Cc1cc2nc3c(=O)n(CCc4ccccc4)c(=O)[nH]c3nc2cc1N | > 40 µM (inactive)
30 | Cc1cc(C)c2nc(SCC(=O)N3CC(=O)Nc4ccccc43)c(C#N)cc2c1 | 7.22 µM
31 | Cc1nc(N2CCN(c3ccccn3)CC2)c2c(C)c(C(=O)N3CCN(c4cccc(Cl)c4)CC3)sc2n1 | > 40 µM (inactive)
32 | CCOc1ccc(S(=O)(=O)Nc2nc3ccccc3nc2-n2ccc(=NC(=O)c3ccccc3C)cc2)cc1 | > 40 µM (inactive)
33 | O=[N+]([O-])c1ccc(N2CCCCCC2)c2nonc12 | > 40 µM (inactive)
34 | CCN(CC)c1ccc(/C=C2\C(=O)NC(=S)N(C)C2=O)o1 | 4.36 µM
35 | COC(=O)c1cccc(Cn2ccc3ccc(-c4ccc5ccn(C(=O)c6ccccc6OC)c5c4)cc32)c1 | 0.91 µM
36 | CCc1nc(SCC(=O)Nc2ccc3c(c2)OCCO3)c2oc3ccccc3c2n1 | 1.3 µM
37 | Cc1cc(Br)ccc1NC(=O)c1sc2ncn(CC(=O)N3CCN(c4ccccn4)CC3)c(=O)c2c1C | 5.34 µM
38 | Oc1ccccc1-c1nc(NCc2ccccc2)c2ccccc2n1 | > 40 µM (inactive)
39 | Cc1ccc2[nH]cc(S(=O)(=O)c3ccc(C)c(C)c3)c(=O)c2c1 | > 40 µM (inactive)
40 | Cc1ccc2[nH]cc(/C=C/c3cc[n+](C)cc3)c2c1 | > 40 µM (inactive)
